Consider 14 compounds from patent US11136308B2, “Substituted quinazoline and quinazolinone compounds and methods of use thereof” (Araxes Pharma LLC, priority 2017, dated 2021).

This test deals with T1, KRAS G12C 1-169, his-tagged protein, GDP-loaded (Homo sapiens, UniProt P01116, G12C).
T1 construct: KRAS G12C 1-169, his-tagged protein, GDP-loaded; His tag
In words: Biochemical assay: covalent binding to KRAS G12C measured by mass spectrometry (RapidFire/TOF or Q-Exactive). The conditions noted are these: covalent binding to KRAS G12C after a thirty minute incubation period. As for the experimental part:
Test compounds were prepared as 10 mM stock solutions in DMSO (Fisher cat #BP-231-100). KRAS G12C 1-169, his-tagged protein, GDP-loaded was diluted to 0.5 μM in buffer (20 mM Hepes, 150 mM NaCl, 1 mM MgCl2). Compounds were tested for activity as follows:
Compounds were diluted to 50× final test concentration in DMSO in 96-well storage plates. Compound stock solutions were vortexed before use and observed carefully for any sign of precipitation. Dilutions were as follow: • For 100 μM final compound concentration, compounds were diluted to 5000 μM (5 μL 10 mM compound stock+5 μL DMSO and mixed well by pipetting. • For 30 μM final compound concentration, compounds were diluted to 1500 μM (3 μL 10 mM compound stock+17 μL DMSO) and mixed well by pipetting. • For 10 μM final compound concentration, compounds were diluted to 500 μM (2 μL 10 mM compound stock+38 μL DMSO) and mixed well by pipetting. 49 μL of the stock protein solution was added to each well of a 96-well PCR plate (Fisher cat #1423027). 1 μl of the diluted 50× compounds were added to appropriate wells in the PCR plate using 12-channel pipettor. Reactions were mixed carefully and thoroughly by pipetting up/down with a 200 μL multi-channel pipettor. The plate was sealed well with aluminum plate seal, and stored in drawer at room temperature for 10 minutes, 30 minutes, 2 hours or 24 hours. 5 μL of 2% formic acid (Fisher cat #A117) in de-ionized H2O was then added to each well followed by mixing with a pipette. The plate was then resealed with aluminum seal and stored on dry ice until analyzed as described below.
The above described assays were analyzed by mass spectrometry according to one of the following two procedures:
The MS instrument is set to positive polarity, 2 GHz resolution, and low mass (1700) mode and allowed to equilibrate for 30 minutes. The instrument is then calibrated, switched to acquisition mode and the appropriate method loaded.
After another 30 minute equilibration time, a blank batch (i.e., buffer) is run to ensure equipment is operating properly. The samples are thawed at 37° C. for 10 minutes, briefly centrifuged, and transfer to the bench top. Wells A1 and H12 are spiked with 1 μL 500 μM internal standard peptide, and the plates centrifuged at 2000×g for 5 minutes. The method is then run and masses of each individual well recorded.
The masses (for which integration data is desired) for each well are pasted into the platemap and exported from the analysis. Masses for the internal standards are exported as well. The data at 50 ppm is extracted for the +19 charge state, and identity of well A1 is assigned using the internal standard spike and integrated. Peak data is exported as a TOF list and the above steps are repeated individually, for the +20, 21, 22, 23, 24, and 25 charge states.
The masses and peak intensities of KRAS G12C protein species were measured using a Dionex RSLCnano system (Thermo Scientific) connected to a Q Exactive Plus mass spectrometer (Thermo Scientific).
[…] of sample was each loaded onto a Aeris™ 3.6 μm WIDEPORE C4 200 Å, LC Column 50×2.1 mm column maintained at 40° C. at a flow rate of 600 μL/min with 20% Solvent A (0.1% formic acid in H2O) and 80% Solvent B (0.1% formic acid in acetonitrile). The liquid chromatography conditions were 20% solvent B for 1 minute, 20% to 60% solvent B for 1.5 minutes, 60% to 90% solvent for 0.5 minute, 90% solvent B for 0.2 minute, 90% to 20% solvent B for 0.2 minute, and then equilibrated for 1.6 minute before the following sample injection. The flow rate was maintained at 600 μL/min throughout the sample analysis.
The mass spectrometer was operated in profile mode at a resolution of 17500, 5 microscans, using 50 msec max injection time and an AGC target of 1×10^6, and a full mass range from 800-1850 m/z was recorded. The HCD trapping gas was optimized for maximum sensitivity for intact proteins. […]
Take `C=CC(=O)N1CC(c2nc3ccc(-c4cc(O)cc5ccccc45)cc3c(=O)[nH]2)C1` [Compound 1, 2-(1-acryloylazetidin-3-yl)-6-(3-hydroxynaphthalen-1-yl)quinazolin-4(3H)-one]: the Binding % entry was “++ (++ indicates binding activity from 10 to 50%)”. The result for `C=CC(=O)N1CC(c2nc3ccc(-c4cc(O)cc5ccccc45)cc3c(=O)n2C)C1` [Compound 2, 2-(1-acryloylazetidin-3-yl)-6-(3-hydroxynaphthalen-1-yl)-3-methylquinazolin-4(3H)-one] reads “+++ (+++ indicates binding activity greater than 50%)”. Consider `C=CC(=O)N1CC(c2nc3ccc(-c4c(C)ccc5[nH]ncc45)cc3c(=O)n2C)C1` [Compound 3, 2-(1-acryloylazetidin-3-yl)-3-methyl-6-(5-methyl-1H-indazol-4-yl)quinazolin-4(3H)-one], for which the Binding % result is reported as “++ (++ indicates binding activity from 10 to 50%)”. On to `C=CC(=O)N1CC(c2nc3ccc(-c4cc(O)cc5ccccc45)cc3c(=O)n2CCCN(C)C)C1` [Compound 4, 2-(1-acryloylazetidin-3-yl)-3-(3-(dimethylamino)propyl)-6-(3-hydroxynaphthalen-1-yl)quinazolin-4(3H)-one], for which the Binding % result is “+++ (+++ indicates binding activity greater than 50%)”. The result for `C=CC(=O)N1CC(c2nc3ccc(-c4c(C)ccc5[nH]ncc45)cc3c(=O)n2CCCN(C)C)C1` [Compound 5, 2-(1-acryloylazetidin-3-yl)-3-(3-(dimethylamino)propyl)-6-(5-methyl-1H-indazol-4-yl)quinazolin-4(3H)-one] reads “++ (++ indicates binding activity from 10 to 50%)”; that for `C=CC(=O)N1CC(c2nc3ccc(-c4cccc5[nH]nc(I)c45)cc3c(=O)n2CCCN(C)C)C1` [Compound 6, 2-(1-acryloylazetidin-3-yl)-3-(3-(dimeth-ylamino)propyl)-6-(3-iodo-1H-indazol-4-yl)quinazolin-4(3H)-one], “+ (+ indicates binding activity up to 10%)”; that for `C=CC(=O)N1CC(c2nc3ccc(-c4cccc5[nH]nc(C)c45)cc3c(=O)n2CCCN(C)C)C1` [Compound 7, 2-(1-acryloylazetidin-3-yl)-3-(3-(dimeth-ylamino)propyl)-6-(3-methyl-1H-indazol-4-yl)quinazolin-4(3H)-one], “+ (+ indicates binding activity up to 10%)”. Consider `C=CC(=O)N1CC(c2nc(NCC(=O)N3CC(N(C)C)C3)c3cc(-c4cc(O)cc5ccccc45)ccc3n2)C1` [Compound 21, 1-(3-(4-((2-(3-(dimethylamino)azetidin-1-yl)-2-oxoethyl)amino)-6-(3-hydroxynaphthalen-1-yl)quinazolin-2-yl)azetidin-1-yl)prop-2-en-1-one], for which the Binding % result is reported as “+ (+ indicates binding activity up to 10%)”. With `C=CC(=O)N1CC(Cc2nc3ccc(-c4cc(O)cc5ccccc45)cc3c(=O)n2CCCN(C)C)C1` [Compound 27, 2-((1-acryloylazetidin-3-yl)methyl)-3-(3-(dimethylamino)propyl)-6-(3-hydroxynaphthalen-1-yl)quinazolin-4(3H)-one] the entry was “+ (+ indicates binding activity up to 10%)”; with `C=CC(=O)N1CC(c2nc(-n3ccnc3)c3cc(-c4cc(O)cc5ccccc45)ccc3n2)C1` [Compound 30, 1-(3-(6-(3-hydroxynaphthalen-1-yl)-4-(1H-imidazol-1-yl)quinazolin-2-yl)azetidin-1-yl)prop-2-en-1-one], “+ (+ indicates binding activity up to 10%)”. With `C=CC(=O)N1CC(c2nc(NC3CCN(C4CC4)CC3)c3cc(-c4c(C)ccc5[nH]ncc45)ccc3n2)C1` [Compound 31, 1-(3-(4-((1-cyclopropylpiperi-din-4-yl)amino)-6-(5-methyl-1H-indazol-4-yl)quinazolin-2-yl)azetidin-1-yl)prop-2-en-1-one] the entry was “+ (+ indicates binding activity up to 10%)”.

As for `C=CC(=O)N1CC(c2nc(N3CC(N(C)C)C3)c3cc(-c4c(C)ccc5[nH]ncc45)ccc3n2)C1` [Compound 32, 1-(3-(4-(3-(dimethylamino)aze-tidin-1-yl)-6-(5-methyl-1H-indazol-4-yl)quinazolin-2-yl)azetidin-1-yl)prop-2-en-1-one], the Binding % entry is “+ (+ indicates binding activity up to 10%)”. `C=CC(=O)N1CC(c2nc(NCCc3ncccn3)c3cc(-c4c(C)ccc5[nH]ncc45)ccc3n2)C1` [Compound 33, 1-(3-(6-(5-methyl-1H-indazol-4-yl)-4-((2-(pyrimidin-2-yl)ethyl)amino)quin-azolin-2-yl)azetidin-1-yl)prop-2-en-1-one]: the Binding % entry is on record as “+ (+ indicates binding activity up to 10%)”. Regarding `C=CC(=O)N1CC(c2nc(N3CCC(O)C3)c3cc(-c4cc(O)cc5ccccc45)ccc3n2)C1` (centres unmarked) [Compound 34, 1-(3-(6-(3-hydroxynaphthalen-1-yl)-4-(3-hydroxypyrrolidin-1-yl)quinazolin-2-yl)azetidin-1-yl)prop-2-en-1-one], the Binding % result is listed as “+ (+ indicates binding activity up to 10%)”.
